Measurements reported in PubChem BioAssay AID192 (DTP/NCI, 2004).
Several values for one entry are separate records, joined by “and”; a condition that tells them apart may be missing. Identical values can stand only once. Inconclusive results and toxic doses are left out.

System: BDF1 mice, B16 melanoma ip, median survival T/C
Test: NCI In Vivo Anticancer Drug Screen. Data for tumor model B16 Melanoma (intraperitoneal) in B6D2F1 (BDF1) mice
Details: endpoint: median survival time, higher = longer survival
Procedure, shortened: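 Survival or tumor size is measured after treatment of tumor-bearing mice and normalised to the vehicle-treated control group.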

[1] = dose: 6.25 mg/kg/injection, schedule: Q01DX009 (ip), vehicle: Klucel (hydroxypropylcellulose) (HPC)
[2] = dose: 12.5 mg/kg/injection, schedule: Q01DX009 (ip), vehicle: Klucel (hydroxypropylcellulose) (HPC)
[3] = dose: 100.0 mg/kg/injection, schedule: Q01DX009 (ip), vehicle: Klucel (hydroxypropylcellulose) (HPC)
[4] = dose: 200.0 mg/kg/injection, schedule: Q01DX009 (ip), vehicle: Klucel (hydroxypropylcellulose) (HPC)
[5] = dose: 400.0 mg/kg/injection, schedule: Q01DX009 (ip), vehicle: Klucel (hydroxypropylcellulose) (HPC)
[6] = dose: 6.25 mg/kg/injection, schedule: Q01DX009 (ip), vehicle: saline with Tween-80
[7] = dose: 12.5 mg/kg/injection, schedule: Q01DX009 (ip), vehicle: saline with Tween-80
[8] = dose: 25.0 mg/kg/injection, schedule: Q01DX009 (ip), vehicle: saline with Tween-80
[9] = dose: 50.0 mg/kg/injection, schedule: Q01DX009 (ip), vehicle: saline with Tween-80
[10] = dose: 2.0 mg/kg/injection, schedule: Q01DX009 (ip), vehicle: saline
[11] = dose: 2.5 mg/kg/injection, schedule: Q01DX009 (ip), vehicle: saline
[12] = dose: 4.0 mg/kg/injection, schedule: Q01DX009 (ip), vehicle: saline
[13] = dose: 5.0 mg/kg/injection, schedule: Q01DX009 (ip), vehicle: saline
[14] = dose: 8.0 mg/kg/injection, schedule: Q01DX009 (ip), vehicle: saline
[15] = dose: 10.0 mg/kg/injection, schedule: Q01DX009 (ip), vehicle: saline
[16] = dose: 20.0 mg/kg/injection, schedule: Q01DX009 (ip), vehicle: saline
[17] = dose: 25.0 mg/kg/injection, schedule: Q01DX009 (ip), vehicle: saline
[18] = dose: 100.0 mg/kg/injection, schedule: Q01DX009 (ip), vehicle: saline with Tween-80
[19] = dose: 200.0 mg/kg/injection, schedule: Q01DX009 (ip), vehicle: saline with Tween-80
[20] = dose: 100.0 mg/kg/injection, schedule: Q01DX009 (ip), vehicle: saline

CCOC(=O)CCCN(c1sc(C)c(C)c1C(=O)OCC)S(=O)(=O)c1ccc(C)cc1
T/C (dose: 50.0 mg/kg/injection, schedule: Q04DX003 (ip), vehicle: saline with Tween-80): 111 % of control
T/C (dose: 100.0 mg/kg/injection, schedule: Q04DX003 (ip), vehicle: saline with Tween-80): 105 % of control
T/C (dose: 200.0 mg/kg/injection, schedule: Q04DX003 (ip), vehicle: saline with Tween-80): 111 % of control
T/C (dose: 400.0 mg/kg/injection, schedule: Q04DX003 (ip), vehicle: saline with Tween-80): 100 % of control

CCOc1ccc(NC(=O)Nc2cccc3ccccc23)cc1
T/C (dose: 1.56 mg/kg/injection, schedule: Q01DX009 (ip), vehicle: Klucel (hydroxypropylcellulose) (HPC)): 91 % of control
T/C (dose: 3.13 mg/kg/injection, schedule: Q01DX009 (ip), vehicle: Klucel (hydroxypropylcellulose) (HPC)): 91 % of control
T/C [1]: 86 % of control and 91 % of control

N#CSc1ccc(S(N)(=O)=O)cc1
T/C [1]: 100 % of control
T/C [2]: 103 % of control

CC(=O)CC(=O)NC1CCCC1
T/C [3]: 96 % of control
T/C [4]: 96 % of control
T/C [5]: 107 % of control

O=NN(CCF)C(=O)NCCO
T/C (dose: 1.88 mg/kg/injection, schedule: Q01DX001 (ip), vehicle: saline): 115 % of control
T/C (dose: 3.75 mg/kg/injection, schedule: Q01DX001 (ip), vehicle: saline): 114 % of control
T/C (dose: 15.0 mg/kg/injection, schedule: Q01DX001 (ip), vehicle: saline): 172 % of control
T/C (dose: 30.0 mg/kg/injection, schedule: Q01DX001 (ip), vehicle: saline): 231 % of control
T/C (dose: 60.0 mg/kg/injection, schedule: Q01DX001 (ip), vehicle: saline): 212 % of control

O=C1CCC(c2ccccc2)=NN1
T/C [6]: 102 % of control
T/C [7]: 102 % of control
T/C [8]: 102 % of control
T/C [9]: 89 % of control and 94 % of control

CC[C@H](CC[C@@H](C)[C@H]1CC[C@H]2[C@@H]3CC=C4C[C@@H](O)CC[C@]4(C)[C@H]3CC[C@]12C)C(C)C
T/C [3]: 91 % of control
T/C [4]: 109 % of control
T/C [5]: 94 % of control

Cn1c(CCCC(=O)O)nc2cc(N(CCCl)CCCl)ccc21
T/C (dose: 1.0 mg/kg/injection, schedule: Q01DX009 (ip), vehicle: saline): 115 % of control
T/C [10]: 94 % of control
T/C [11]: 157 % of control
T/C [12]: 103 % of control
T/C [13]: 152 % of control
T/C (dose: 6.0 mg/kg/injection, schedule: Q01DX009 (ip), vehicle: saline): 101 % of control
T/C [14]: 159 % of control
T/C [15]: 157 % of control and 186 % of control
T/C (dose: 12.0 mg/kg/injection, schedule: Q01DX009 (ip), vehicle: saline): 115 % of control
T/C [16]: 89 % of control

O=C1C2(Cl)C3(Cl)C4(Cl)C(Cl)(Cl)C5(Cl)[C@]3(Cl)C1(Cl)[C@]5(Cl)C24Cl (stereo partly drawn)
T/C (dose: 3.12 mg/kg/injection, schedule: Q01DX009 (ip), vehicle: Klucel (hydroxypropylcellulose) (HPC)): 97 % of control
T/C [1]: 105 % of control
T/C [6]: 102 % of control
T/C [2]: 98 % of control
T/C [7]: 106 % of control
T/C (dose: 25.0 mg/kg/injection, schedule: Q01DX009 (ip), vehicle: Klucel (hydroxypropylcellulose) (HPC)): 110 % of control

CCN(CC)CCSC(=O)C(O)(c1ccccc1)C1CCCC1 (stereo not drawn)
T/C [17]: 124 % of control

O=[N+]([O-])O.[NH-]C1CCCCC1[NH-].[NH-]C1CCCCC1[NH-].[OH-].[OH-].[Pt+4].[Pt+4] (stereo not drawn)
T/C (dose: 0.25 mg/kg/injection, schedule: Q01DX009 (ip), vehicle: water): 110 % of control and 111 % of control
T/C (dose: 0.5 mg/kg/injection, schedule: Q01DX009 (ip), vehicle: water): 120 % of control and 124 % of control

CN1N=C(N)c2cn(C3OC(COP(=O)(O)O)C(O)C3O)c3ncnc1c23 (stereo not drawn)
T/C (dose: 6.25 mg/kg/injection, schedule: Q01DX009 (ip), vehicle: water): 89 % of control and 92 % of control
T/C (dose: 12.5 mg/kg/injection, schedule: Q01DX009 (ip), vehicle: water): 90 % of control
T/C (dose: 25.0 mg/kg/injection, schedule: Q01DX009 (ip), vehicle: water): 93 % of control
T/C (dose: 50.0 mg/kg/injection, schedule: Q01DX009 (ip), vehicle: water): 96 % of control
T/C (dose: 100.0 mg/kg/injection, schedule: Q01DX009 (ip), vehicle: water): 88 % of control

Cc1cc(-c2ccc(N=Nc3ccc4c(S(=O)(=O)O)cc(S(=O)(=O)O)c(N)c4c3O)c(C)c2)ccc1N=Nc1ccc2c(S(=O)(=O)O)cc(S(=O)(=O)O)c(N)c2c1O
T/C (dose: 12.5 mg/kg/injection, schedule: Q01DX009 (ip), vehicle: saline): 121 % of control

Cc1nn(CCO)c(C)c1N=[N+]([O-])c1c(C)nn(CCO)c1C
T/C (dose: 15.0 mg/kg/injection, schedule: Q01DX011 (ip), vehicle: saline with Tween-80): 88 % of control

COc1cc2c(cc1OC)C(OC)N(C)c1c-2ccc2cc3c(cc12)OCO3 (stereo not drawn)
T/C [8]: 122 % of control

FC(F)(F)c1nc2nc(Cl)c(Cl)nc2[nH]1
T/C [7]: 116 % of control
T/C [8]: 114 % of control
T/C [9]: 98 % of control

COC(=O)[C@]1(C)CCC[C@]2(C)[C@H]3CC4OO[C@@]3(CC[C@H]21)[C@H]1O[C@@]41C(C)C
T/C [18]: 100 % of control
T/C [19]: 113 % of control

CCCCN(CCCC)c1ccc(C(=O)O)cc1
T/C [9]: 102 % of control
T/C [18]: 94 % of control
T/C [19]: 103 % of control

CN(CCO)/N=N/c1nc[nH]c1C(N)=O
T/C (dose: 50.0 mg/kg/injection, schedule: Q01DX009 (ip), vehicle: carboxymethylcellulose (CMC)): 105 % of control

COC(COC(N)=O)C1=C(N2CC2)C(=O)C(C)=C(N2CC2)C1=O (stereo not drawn)
T/C (dose: 0.03 mg/kg/injection, schedule: Q01DX009 (ip), vehicle: saline): 93 % of control and 107 % of control and 122 % of control
T/C (dose: 0.06 mg/kg/injection, schedule: Q01DX009 (ip), vehicle: saline): 101 % of control and 114 % of control
T/C (dose: 0.12 mg/kg/injection, schedule: Q01DX009 (ip), vehicle: saline): 123 % of control
T/C (dose: 0.25 mg/kg/injection, schedule: Q01DX009 (ip), vehicle: saline): 163 % of control
T/C (dose: 0.5 mg/kg/injection, schedule: Q01DX009 (ip), vehicle: saline): 179 % of control and 196 % of control

CC(C)C(NC=O)C(=O)O (stereo not drawn)
T/C [9]: 101 % of control
T/C [18]: 97 % of control
T/C [19]: 92 % of control

c1ccc(CSC2=NCCS2)cc1
T/C [18]: 102 % of control
T/C [19]: 105 % of control
T/C (dose: 400.0 mg/kg/injection, schedule: Q01DX009 (ip), vehicle: saline with Tween-80): 97 % of control

CCNCc1cc(Nc2nc(NC3CCC(N(C)C)CC3)c3ccccc3n2)ccc1OC (stereo not drawn)
T/C [11]: 105 % of control
T/C [13]: 103 % of control
T/C [15]: 114 % of control
T/C [16]: 122 % of control
T/C (dose: 40.0 mg/kg/injection, schedule: Q01DX009 (ip), vehicle: saline): 112 % of control

NCCCOc1ccc([N+](=O)[O-])cc1Cl
T/C [17]: 104 % of control
T/C (dose: 50.0 mg/kg/injection, schedule: Q01DX009 (ip), vehicle: saline): 104 % of control
T/C [20]: 102 % of control

NC(=O)CC(N)C(=O)O (stereo not drawn)
T/C (dose: 50.0 mg/kg/injection, schedule: Q01DX009 (ip), vehicle: other): 99 % of control
T/C (dose: 100.0 mg/kg/injection, schedule: Q01DX009 (ip), vehicle: other): 96 % of control
T/C [20]: 92 % of control
T/C (dose: 200.0 mg/kg/injection, schedule: Q01DX009 (ip), vehicle: other): 105 % of control
T/C (dose: 200.0 mg/kg/injection, schedule: Q01DX009 (ip), vehicle: saline): 87 % of control
T/C (dose: 400.0 mg/kg/injection, schedule: Q01DX009 (ip), vehicle: other): 96 % of control
T/C (dose: 400.0 mg/kg/injection, schedule: Q01DX009 (ip), vehicle: saline): 87 % of control
T/C (dose: 800.0 mg/kg/injection, schedule: Q01DX009 (ip), vehicle: other): 104 % of control
T/C (dose: 1600.0 mg/kg/injection, schedule: Q01DX009 (ip), vehicle: other): 103 % of control

CCC[P+](c1ccccc1)(c1ccccc1)c1ccccc1
T/C [10]: 96 % of control
T/C [12]: 98 % of control
T/C [14]: 115 % of control
T/C (dose: 16.0 mg/kg/injection, schedule: Q01DX009 (ip), vehicle: saline): 115 % of control
T/C (dose: 32.0 mg/kg/injection, schedule: Q01DX009 (ip), vehicle: saline): 108 % of control
